Test results reported in BindingDB's records for patent US20240262804 (Hansoh Bio, 2024).

Biological target: T1, Myosin-7 (Bos taurus, UniProt Q9BE39)
T1 construct: gene MYH7
Assay: Biochemical Assay
Procedure: In our experiments, bovine skinned cardiac myofibrils were isolated from the frozen bovine left ventricle as myosin's source in the ATPase assay. […] 75 μL of a solution containing bovine cardiac myofibrils, PK/LDH, and calcium were added to a 96 well plate for a 7 point dose-response. In some circumstances, 10 point-response was used to repeat the ATPase assays on compounds of interest. Compounds were added to the myofibrils solution and incubated for 5 minutes. The enzymatic reaction was started with the addition of 75 μL of a solution containing ATP, PEP, NADH, compounds, and calcium. The ATPase activity was measured by reading absorbance at 340 nm in a PerkinElmer Victor Nivo plate reader at 25° C. in kinetic mode for 15 minutes using clear bottom plates. The slopes of the absorbance changes as a function of time for the first 10 minutes were normalized to slopes on the control wells containing all reagents, including DMSO, but without compounds.

T1 sequence (Q9BE39 whole entry, looked up): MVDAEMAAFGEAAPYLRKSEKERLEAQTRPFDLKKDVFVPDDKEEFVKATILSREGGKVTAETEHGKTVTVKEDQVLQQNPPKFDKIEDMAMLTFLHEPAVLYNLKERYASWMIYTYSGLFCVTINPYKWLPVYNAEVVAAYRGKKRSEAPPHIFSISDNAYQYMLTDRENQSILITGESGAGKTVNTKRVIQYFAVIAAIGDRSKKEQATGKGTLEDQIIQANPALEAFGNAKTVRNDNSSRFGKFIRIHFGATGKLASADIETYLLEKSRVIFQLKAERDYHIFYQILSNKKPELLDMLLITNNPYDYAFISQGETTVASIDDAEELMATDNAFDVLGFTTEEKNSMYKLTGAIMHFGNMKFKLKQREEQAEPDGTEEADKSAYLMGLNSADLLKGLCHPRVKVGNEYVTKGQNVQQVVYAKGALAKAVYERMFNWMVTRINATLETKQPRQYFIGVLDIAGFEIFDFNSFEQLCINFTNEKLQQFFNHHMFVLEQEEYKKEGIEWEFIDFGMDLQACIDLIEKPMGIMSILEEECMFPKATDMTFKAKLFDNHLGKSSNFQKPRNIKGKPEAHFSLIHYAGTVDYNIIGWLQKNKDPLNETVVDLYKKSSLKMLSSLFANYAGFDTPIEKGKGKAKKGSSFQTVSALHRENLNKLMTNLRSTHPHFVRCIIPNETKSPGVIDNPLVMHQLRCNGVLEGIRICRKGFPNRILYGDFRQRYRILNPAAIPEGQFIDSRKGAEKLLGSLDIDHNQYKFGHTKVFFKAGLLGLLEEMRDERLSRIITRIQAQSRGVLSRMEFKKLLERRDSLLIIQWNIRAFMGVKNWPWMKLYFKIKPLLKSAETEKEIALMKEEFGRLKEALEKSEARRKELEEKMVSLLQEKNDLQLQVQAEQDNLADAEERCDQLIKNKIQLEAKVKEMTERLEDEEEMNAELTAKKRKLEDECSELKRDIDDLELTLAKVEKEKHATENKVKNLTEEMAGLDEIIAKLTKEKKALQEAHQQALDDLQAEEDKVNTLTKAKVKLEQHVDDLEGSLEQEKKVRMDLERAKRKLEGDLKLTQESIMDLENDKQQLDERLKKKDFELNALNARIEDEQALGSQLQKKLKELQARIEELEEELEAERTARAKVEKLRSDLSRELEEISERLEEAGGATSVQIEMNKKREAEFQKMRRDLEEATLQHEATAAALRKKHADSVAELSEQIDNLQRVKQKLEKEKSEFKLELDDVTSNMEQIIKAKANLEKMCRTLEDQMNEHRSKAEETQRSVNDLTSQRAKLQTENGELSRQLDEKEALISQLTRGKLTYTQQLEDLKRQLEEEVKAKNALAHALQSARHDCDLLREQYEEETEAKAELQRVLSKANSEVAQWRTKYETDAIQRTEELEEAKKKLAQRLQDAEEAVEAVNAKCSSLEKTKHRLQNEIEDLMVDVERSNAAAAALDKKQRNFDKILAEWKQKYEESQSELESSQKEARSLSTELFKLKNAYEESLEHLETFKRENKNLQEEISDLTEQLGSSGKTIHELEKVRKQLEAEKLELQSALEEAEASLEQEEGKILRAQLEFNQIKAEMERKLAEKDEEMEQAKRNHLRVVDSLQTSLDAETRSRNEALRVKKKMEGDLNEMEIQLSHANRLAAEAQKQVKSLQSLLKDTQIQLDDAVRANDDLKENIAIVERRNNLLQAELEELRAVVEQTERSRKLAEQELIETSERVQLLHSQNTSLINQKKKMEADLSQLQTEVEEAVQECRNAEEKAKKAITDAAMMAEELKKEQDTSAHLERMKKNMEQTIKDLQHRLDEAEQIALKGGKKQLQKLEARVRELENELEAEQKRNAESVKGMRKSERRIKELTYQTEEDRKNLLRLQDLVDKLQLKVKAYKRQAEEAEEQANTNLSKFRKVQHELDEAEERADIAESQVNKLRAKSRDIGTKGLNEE

SMILES	IC50 [nM]
C[C@H](Nc1nc(=O)n(-c2ccccc2)c(=O)[nH]1)C1CCCCC1 [US20240262804, Example 1]	8050
Cc1cccc([C@H](C)Nc2nc(=O)n(C3CCOCC3)c(=O)[nH]2)c1 [US20240262804, Example 4]	800
Cc1nn(C)cc1-c1cccc([C@H](C)Nc2nc(=O)n(C3CCOCC3)c(=O)[nH]2)c1 [US20240262804, Example 5]	3590
Cc1ccn(-c2cccc([C@H](C)Nc3nc(=O)n(C4CCOCC4)c(=O)[nH]3)c2)n1 [US20240262804, Example 6]	4010
C[C@H](Nc1nc(=O)n(C2CCOCC2)c(=O)[nH]1)c1cccc(C(C)(C)O)c1 [US20240262804, Example 8]	2460
CC(C)C(O)c1cccc([C@H](C)Nc2nc(=O)n(C3CCOCC3)c(=O)[nH]2)c1 (some centres undefined) [US20240262804, Example 9]	1180
C[C@H](Nc1nc(=O)n(C2CCOCC2)c(=O)[nH]1)c1ccc(F)cc1Cl [US20240262804, Example 162]	1210
C[C@H](Nc1nc(=O)n(C2CCOCC2)c(=O)[nH]1)c1cc(Cl)ccc1Cl [US20240262804, Example 163]	930
C[C@H](Nc1nc(=O)n(CC(F)(F)F)c(=O)[nH]1)c1ccc(Cl)c(Cl)c1 [US20240262804, Example 173]	2850
